Reference: patent US20130317134A1, “TISSUE ADHESIVE BASED ON TRIFUNCTIONAL ASPARTATES” (Bayer Intellectual Property GmbH Creative Campus Monheim, priority 2011, published 2013)

System: L929 cells
Test: Cytotoxicity of the cured adhesive in accordance with ISO 10993-5:2009
Assay type: cell-based
Details: adhesive of Prepolymer C cured with equivalent amount of curing agent
Description: Prepolymer C was reacted with an equivalent amount of 3. The cytotoxicity was measured in accordance with ISO 10993-5:2009 using L929 cells.
4 g of prepolymer C were stirred thoroughly in a beaker with an equivalent amount of (5) and cured. The adhesive was measured in accordance with ISO 10993-5:2009 using L929 cells.

CCOC(=O)CC(NCCCC(CCCNC(CC(=O)OCC)C(=O)OCC)CCCNC(CC(=O)OCC)C(=O)OCC)C(=O)OCC (stereo not drawn) [Compound 3, Tetraethyl 2,2′-(4-(3-(1,4-diethoxy-1,4-dioxobutan-2-ylamino)propyl)heptane-1,7-diyl)bis-(azandiyl)disuccinate]
cell viability: no reduction in cell viability
cytotoxicity category: not to be categorised as cytotoxic

CCOC(=O)CC(NCCCCC(CCCNC(CC(=O)OCC)C(=O)OCC)CNC(CC(=O)OCC)C(=O)OCC)C(=O)OCC (stereo not drawn) [Compound 5, Diethyl 2-[(8-[(1,4-diethoxy-1,4-dioxobutan-2-yl)amino]-4-{[(1,4-diethoxy-1,4-dioxobutan-2-yl)-amino]methyl}octyl)amino]butanedioate, reference compound]
cytotoxicity category: high cyctotoxicity
